Laboratory results taken from patent publication US6147100A, “Pyrrolidine derivatives having phospholipase A2 inhibitory activity” (Shionogi & Co., Ltd., priority 1997, dated 2000).
pIC50: −log10 of the molar value.

Key:
[1] = target: T1, cPLA2 (Homo sapiens, UniProt P47712); assay: cPLA2 Inhibitory Activity; format: biochemical; conditions: 1-palmitoyl-2-[14C]-arachidonoyl-sn-glycero-3-phosphocholine 2.5 μM, sn-1,2-dioleoylglycerol 1.25 μM; pH 7.5, 15 min at 37° C.
T1 sequence (P47712 1-749): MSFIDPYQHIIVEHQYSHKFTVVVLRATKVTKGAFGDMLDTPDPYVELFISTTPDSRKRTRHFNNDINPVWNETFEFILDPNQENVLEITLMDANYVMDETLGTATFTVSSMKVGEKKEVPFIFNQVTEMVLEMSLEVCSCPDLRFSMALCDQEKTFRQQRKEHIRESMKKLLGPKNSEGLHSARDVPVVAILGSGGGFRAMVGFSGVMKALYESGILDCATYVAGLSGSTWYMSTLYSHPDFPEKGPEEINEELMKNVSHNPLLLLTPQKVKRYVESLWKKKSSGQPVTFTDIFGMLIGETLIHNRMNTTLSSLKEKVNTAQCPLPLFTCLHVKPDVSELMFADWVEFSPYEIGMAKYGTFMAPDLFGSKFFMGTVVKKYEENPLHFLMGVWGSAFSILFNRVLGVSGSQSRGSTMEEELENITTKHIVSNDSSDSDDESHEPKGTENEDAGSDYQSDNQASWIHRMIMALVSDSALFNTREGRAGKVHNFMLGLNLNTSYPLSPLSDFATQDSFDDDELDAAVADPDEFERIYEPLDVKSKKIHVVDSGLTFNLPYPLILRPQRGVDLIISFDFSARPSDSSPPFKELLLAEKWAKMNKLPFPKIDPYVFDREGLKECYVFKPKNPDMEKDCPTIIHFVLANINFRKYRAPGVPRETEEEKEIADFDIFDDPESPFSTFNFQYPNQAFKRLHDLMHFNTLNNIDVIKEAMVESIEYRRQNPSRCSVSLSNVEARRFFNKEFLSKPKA
In short: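 Radiometric assay in 50 mM HEPES pH 7.5 with 1 mM CaCl2, 150 mM NaCl, 0.1 mg/ml BSA and 1.7 mM DTT; compound and substrate added, reaction started with enzyme, 15 min at 37° C. Released fatty acids extracted (Dole method), counted by liquid scintillation versus no-compound control.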

[2] = tested on: production of prostaglandin E2 by human fibroblasts; assay: Inhibition of Production of Prostaglandin E2 in Human Fibroblasts (IL-1 stimulation); format: cell-based; conditions: Fibroblast; human fibroblasts under stimulation with IL-1
In short: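 Human fibroblasts stimulated with IL-1, with prostaglandin E2 production measured in the presence of compound as a cellular read-out of cPLA2 inhibition.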

pIC50 [1] | SMILES | pIC50 [2]
7.30 | O=C1NC(=O)/C(=C/c2ccc(C(=O)NC[C@@H]3C[C@@H](Oc4ccc(/C=C/c5ccccc5)cc4)CN3C(=O)c3ccccc3C(=O)c3ccc(F)cc3)cc2)S1 [Compound A-82] | 7.35
6.00 | O=C1NC(=O)/C(=C/c2ccc(C(=O)NC[C@@H]3C[C@@H](OCc4ccccc4-c4ccccc4)CN3C(=O)c3ccccc3C(=O)c3cccs3)cc2)S1 [Compound A-19] | 6.80
7.15 | O=C1NC(=S)S/C1=C\c1ccc(C(=O)NC[C@@H]2C[C@@H](SCc3ccccc3-c3ccccc3)CN2C(=O)c2ccccc2C(=O)c2ccc(F)cc2)cc1 [Compound I-6] | 6.59
7.47 | O=C1NC(=O)/C(=C/c2ccc(C(=O)NC[C@@H]3C[C@@H](SCc4ccccc4-c4ccccc4)CN3C(=O)c3ccccc3C(=O)c3ccc(F)cc3)cc2)S1 [Compound I-5] | 6.31
